Source: US20190311703A1, “ACOUSTIC TRAUMA SYSTEM FOR LARVAL FISH” (WASHINGTON STATE UNIVERSITY, priority 2018, published 2019)
Entries after “also recorded” stand apart in the source; their conditions may differ. Like-named read-outs stand apart in the source and are kept apart here. Where a SMILES comes first, the peptide text is derived from it. The star is where a group is joined. Cbz = O=C(OCc1ccccc1)*; CH2F = FC*

What was measured:
lateral line hair cells = assay: Cavitation (acoustic trauma)-induced lateral line hair cell damage in larval zebrafish, hair cell survival assessment; type: in vivo; conditions: for protection from cavitation-induced hair cell damage (hair cell survival score vs DMSO control): blinded mini-screen of select redox library compounds, FIG. 12B
Method: At 5 days post-fertilization (dpf), fish were fed a light dusting of GEMMA micro 75 while in petri dishes. All noise exposure experiments were conducted at 6 dpf. Larval zebrafish were placed into wells A2-A5 and D2-D5 of a modified 24-well plate (3 fish per well) containing fish water and suspended atop 22 cm of water within the container 2 (stainless-steel canister) with the bottom of the 1 cm of the well plate 5 submerged (as generally shown in FIG. 1). While the well plate is disclosed often with the bottom of the plate being submerged, it is also to be understood that the entire well plate may be submerged without departing from the scope of the invention. Fish were exposed to cavitation for periods ranging from 20 to 120 minutes.
Immediately following cavitation fish were transferred to a 6-well plate 5 (6 fish per well) and kept in the fish facility on a 14 h light/10 h dark cycle for up to 5 post-exposure days. Each post-exposure morning (9-10 am) 50% of fish water was exchanged with fresh fish water and fish were lightly dusted with GEMMA food. Each post-exposure day evening (5-6 pm) fish were transferred to a fresh 6-well plate with completely fresh fish water.
Survival of lateral line hair cells was assessed by vital dye labeling in live fish and direct hair cells counts in live and fixed animals. The vital dye 2-(4-(dimethylamino)styryl)-N-ethylpyridinium iodide (DASPEI) is a marker of mitochondria membrane potential and stains lateral line hair cells. Fish were incubated in 0.005% DASPEI for 15 min, then rinsed twice with fish water and anesthetized with 0.001% MS-222. Using a Leica M165FC fluorescence dissection scope, 10 anterior neuromasts (IO1, IO2, IO3, IO4, M2, MI1, MI2, O2, SO1, and SO2) per fish were assessed based on fluorescent intensity. An intensity score of 2 signifies bright neuromast fluorescence, an intermediate score of 1 represents dim DASPEI labeling, while a 0 neuromast score equates to no neuromast fluorescence at a given neuromast's stereotyped position. The scores from 10 neuromasts per fish were summed such that each fish receives a score between 0 (no neuromast fluorescence) and 20 (full complement of hair cells in all 10 neuromasts).
All inhibitors (to test roles of cell death (including apoptosis, pyroptosis and necroptosis) and inflammation, were added to 6-well plates immediately after cavitation-exposed fish were removed from the device. Inhibitors were refreshed during the same intervals as fish water (twice daily) until the end of the desired exposure window. To test the role of protein synthesis, fish were pulse treated immediately after acoustic trauma for 4 h with the protein synthesis inhibitor cycloheximide (C7698; Sigma Aldrich). In separate experiments, acoustic trauma-exposed fish were continuously treated with either the pan caspase inhibitor Z-VAD-FMK ([…]; Sigma Aldrich) or the antioxidant D-methionine (F7111; UBPBio) to assess the contribution of caspase activation and ROS overproduction, respectively, in the acoustically stimulated lateral line. A small blinded screen was also conducted of select compounds from a larger redox library (BML-2835-0100; Enzo Life Sciences). Compounds chosen had either known protective effects in mammalian models of NIHL (as proof-of concept) or had not been previously tested against NIHL (to identify new protective molecules).

hair cells = conditions: intracochlear perfusion, guinea pigs; cited from earlier work
[1] = cited from earlier work
cochlear hair cells [2] = conditions: mice; cited from earlier work
cochlear hair cells [3] = conditions: guinea pigs; cited from earlier work

With O=c1cc(-c2ccccc2)oc2cc(O)c(O)c(O)c12 [baicalein] the “protection from cavitation-induced hair cell damage (hair cell survival score vs DMSO control)” value (lateral line hair cells) was “significantly protected lateral line hair cells from cavitation-induced hair cell damage”.
In the case of COC(=O)C[C@H](NC(=O)[C@H](C)NC(=O)[C@@H](NC(=O)OCc1ccccc1)C(C)C)C(=O)CF [Z-VAD, Z-VAD-FMK] (Cbz-Val-Ala-Asp(OMe)-CH2F), the “hair cell loss following blast noise trauma” value (hair cells) is given as “reduces hair cell loss”, the “protection from cavitation-induced hair cell damage (hair cell survival)” value (from here on “protection … (hair cell survival)”) (lateral line hair cells; 1 μM, treatment for entire 72-hour post-exposure window, FIG. 11B) is given as “significantly reduced cavitation-induced hair cell damage” and the “protection … (hair cell survival)” value (lateral line hair cells; 72-h treatment starting immediately after acoustic stimulation, concentration not stated, FIG. 11B) is given as “reduced cavitation-induced lateral line hair cell damage; also recorded: robustly protects hair cells from damage”.
In the case of CCCCS(=N)(=O)CCC(N)C(=O)O (centres unmarked) [buthionine sulfoximine], the “protection from cavitation-induced hair cell damage (hair cell survival score vs DMSO control)” value (lateral line hair cells) is reported as “did not confer protection”.
For CCOC(=O)/C=C/c1ccc(O)c(OC)c1 [ferulic acid ethylester], the “protection from cavitation-induced hair cell damage (hair cell survival score vs DMSO control)” value (lateral line hair cells) was “significantly protected lateral line hair cells from cavitation-induced hair cell damage”.
For N[C@@H](CCC(=O)N[C@@H](CS)C(=O)NCC(=O)O)C(=O)O [glutathione], the “protection from cavitation-induced hair cell damage (hair cell survival score vs DMSO control)” value (lateral line hair cells) was “significantly protected lateral line hair cells from cavitation-induced hair cell damage”.
With CC1=C(C)C(=O)C(CC[C@](C)(O)CCC[C@H](C)CCC[C@H](C)CCCC(C)C)=C(C)C1=O [d-α-tocopherylquinone] the “protection from cavitation-induced hair cell damage (hair cell survival score vs DMSO control)” value (lateral line hair cells) was “significantly protected lateral line hair cells from cavitation-induced hair cell damage”.
For CC(=O)N[C@@H](CS)C(=O)O [N-acetylcysteine], the “prevention of NIHL, clinical trial outcome” value [1] is listed as “failed to meet clinical endpoints”.
For CSCC[C@@H](N)C(=O)O [D-methionine], the “protection of cochlear hair cells from acoustic trauma” value (cochlear hair cells [2]) is given as “protects cochlear hair cells”, the “protection of cochlear hair cells from acoustic trauma” value (cochlear hair cells [3]) is given as “protects cochlear hair cells” and the “protection … (hair cell survival)” value (lateral line hair cells; 100 μM, FIG. 12A) is given as “protected lateral line hair cells from cavitation damage”. The “protection … (hair cell survival)” value (lateral line hair cells; 500 μM, FIG. 12A) was “protected lateral line hair cells from cavitation damage”, the “protection … (hair cell survival)” value (lateral line hair cells; 72 hour treatment, concentration not stated at place, FIG. 12A) was “protects lateral line hair cells from cavitation” and the “protection … (hair cell survival)” value (lateral line hair cells; 72 hour treatment, concentration not stated at place, FIG. 12A, listed as D-Methionine) was “robustly protects lateral line hair cells from cavitation”.
With C[C@@H]1C[C@@H]([C@H](O)CC2CC(=O)NC(=O)C2)C(=O)[C@@H](C)C1 [cycloheximide] the “protection … (hair cell survival)” value (lateral line hair cells; 4 h pulse treatment immediately after acoustic stimulation, assessed 72 h post-exposure, FIG. 11A) was “prevented hair cell loss; also recorded: reduces hair cell damage” and the “protection … (hair cell survival)” value (lateral line hair cells; 4 h pulse treatment immediately after acoustic stimulation, assessed 72 h post-exposure, FIG. 11A, listed as Cycloheximide) was “protected lateral line hair cells from cavitation in a dose-dependent manner”.
